ChEMBL document CHEMBL5550103, “Design, synthesis, and antiviral activity of 1-aryl-4-arylmethylpiperazine derivatives as Zika virus inhibitors with broad antiviral spectrum” (Bioorg Med Chem, 2024)
The source made the active and inactive calls. No cut-off for these calls is given here.

System: Zika virus
Experiment: Antiviral activity against ZIKV infected in HUVECs pre-infected with virus followed by compound addition and measured after 48 hrs by qRT-PCR analysis
Format: functional, organism-based
Details: HUVEC
In the case of `Clc1ccc(N2CCN(Cc3cc(N4CCC5(CCN(Cc6ccccc6)CC5)C4)ccn3)CC2)cc1`, the EC50 is reported as 0.15 µM. `CN1CCC2(CC1)CCN(c1ccnc(CN3CCN(c4ccc(C(F)(F)F)cc4)CC3)c1)C2` gave an EC50 of 2.18 µM. `CN1CCC2(CC1)CCN(c1ccnc(CN3CCN(c4ccc(Cl)cc4)CC3)c1)C2` showed an EC50 of 0.59 µM. For `CN(C)CCN(C)CCN(C)c1ccc(C(F)(F)F)c(CN2CCN(c3ccncc3)CC2)c1`, the EC50 was 0.39 µM. Work on `CN(C)CCN(C)c1ccc(C#N)c(CN2CCN(c3ccc(Cl)cc3)CC2)c1` yielded an EC50 of 2.19 µM. In the case of `CN1CC2(CCN(c3ccnc(CN4CCN(c5ccc(Cl)cc5)CC4)c3)C2)C1`, the EC50 is reported as 0.82 µM. For `CN(C)CCN(C)CCN(C)c1ccnc(CN2CCN(c3ccc(Cl)cc3)CC2)c1`, the EC50 was 0.87 µM. In the case of `CN1CCC2(CC1)CCN(c1ccc(C(F)(F)F)c(CN3CCN(c4ccc(C(F)(F)F)cc4)CC3)c1)C2`, the EC50 is reported as 0.59 µM. `CN1CCCN(c2ccnc(CN3CCN(c4ccc(C(F)(F)F)cc4)CC3)c2)CC1` showed an EC50 of 1.32 µM. `CN(C)CCN(C)c1ccnc(CN2CCN(c3ccc(Cl)cc3)CC2)c1` gave an EC50 of 0.95 µM. `CN1CCN(c2ccnc(CN3CCN(c4ccc(Cl)cc4)CC3)c2)CC1` gave an EC50 of 1.46 µM. `CN(C)CCN(C)c1ccc(C(F)(F)F)c(CN2CCN(c3ccc(C(F)(F)F)cc3)CC2)c1` showed an EC50 of 2.93 µM. In the case of `NC(=O)c1ncn([C@@H]2O[C@H](CO)[C@@H](O)[C@H]2O)n1` [RIBAVIRIN], the EC50 is reported as 2.55 µM. `CN1CCCN(c2ccc(C(F)(F)F)c(CN3CCN(c4ccc(C(F)(F)F)cc4)CC3)c2)CC1` gave an EC50 of 0.93 µM.

System: not listed separately
Experiment: Cytotoxicity against HUVECs assessed as reduction in cell viability incubated for 48 hrs by CCK-8 method
Format: toxicity, cell-based
Details: human, HUVEC cells
`Clc1ccc(N2CCN(Cc3cc(N4CCC5(CCN(Cc6ccccc6)CC5)C4)ccn3)CC2)cc1` gave a CC50 at 48 h of 20.7 µM. For `CN1CCC2(CC1)CCN(c1ccnc(CN3CCN(c4ccc(C(F)(F)F)cc4)CC3)c1)C2`, the CC50 at 48 h was 30.4 µM. Compound `CN1CCC2(CC1)CCN(c1ccnc(CN3CCN(c4ccc(Cl)cc4)CC3)c1)C2` has a CC50 at 48 h of 31.5 µM. With `CN(C)CCN(C)CCN(C)c1ccc(C(F)(F)F)c(CN2CCN(c3ccncc3)CC2)c1` the CC50 at 48 h was over 50 µM. With `CN(C)CCN(C)c1ccc(C#N)c(CN2CCN(c3ccc(Cl)cc3)CC2)c1` the CC50 at 48 h was 19.8 µM. Compound `CN1CC2(CCN(c3ccnc(CN4CCN(c5ccc(Cl)cc5)CC4)c3)C2)C1` has a CC50 at 48 h of over 50 µM. For `CN(C)CCN(C)CCN(C)c1ccnc(CN2CCN(c3ccc(Cl)cc3)CC2)c1`, the CC50 at 48 h was over 50 µM. In the case of `CN1CCC2(CC1)CCN(c1ccc(C(F)(F)F)c(CN3CCN(c4ccc(C(F)(F)F)cc4)CC3)c1)C2`, the CC50 at 48 h is reported as 2.27 µM. With `CN1CCCN(c2ccnc(CN3CCN(c4ccc(C(F)(F)F)cc4)CC3)c2)CC1` the CC50 at 48 h was over 50 µM. Compound `CN(C)CCN(C)c1ccnc(CN2CCN(c3ccc(Cl)cc3)CC2)c1` has a CC50 at 48 h of over 50 µM. For `CN1CCN(c2ccnc(CN3CCN(c4ccc(Cl)cc4)CC3)c2)CC1`, the CC50 at 48 h was over 50 µM. In the case of `CN(C)CCN(C)c1ccc(C(F)(F)F)c(CN2CCN(c3ccc(C(F)(F)F)cc3)CC2)c1`, the CC50 at 48 h is reported as 14.7 µM. `NC(=O)c1ncn([C@@H]2O[C@H](CO)[C@@H](O)[C@H]2O)n1` [RIBAVIRIN] gave a CC50 at 48 h of over 150 µM. In the case of `CN1CCCN(c2ccc(C(F)(F)F)c(CN3CCN(c4ccc(C(F)(F)F)cc4)CC3)c2)CC1`, the CC50 at 48 h is reported as 9.89 µM.

System: not listed separately
Experiment: Selectivity index, ratio of CC50 for HUVECs to EC50 for ZIKA virus infected in HUVECs
Format: toxicity
Details: human, HUVEC cells; read-out: Ratio CC50/EC50
In the case of `Clc1ccc(N2CCN(Cc3cc(N4CCC5(CCN(Cc6ccccc6)CC5)C4)ccn3)CC2)cc1`, the selectivity ratio is reported as 138. Work on `CN1CCC2(CC1)CCN(c1ccnc(CN3CCN(c4ccc(C(F)(F)F)cc4)CC3)c1)C2` yielded a selectivity ratio of 14. Compound `CN1CCC2(CC1)CCN(c1ccnc(CN3CCN(c4ccc(Cl)cc4)CC3)c1)C2` has a selectivity ratio of 54. `CN(C)CCN(C)CCN(C)c1ccc(C(F)(F)F)c(CN2CCN(c3ccncc3)CC2)c1` gave a selectivity ratio of over 128. `CN(C)CCN(C)c1ccc(C#N)c(CN2CCN(c3ccc(Cl)cc3)CC2)c1` showed a selectivity ratio of 9. Work on `CN1CC2(CCN(c3ccnc(CN4CCN(c5ccc(Cl)cc5)CC4)c3)C2)C1` yielded a selectivity ratio of over 61. Work on `CN(C)CCN(C)CCN(C)c1ccnc(CN2CCN(c3ccc(Cl)cc3)CC2)c1` yielded a selectivity ratio of over 58. With `CN1CCC2(CC1)CCN(c1ccc(C(F)(F)F)c(CN3CCN(c4ccc(C(F)(F)F)cc4)CC3)c1)C2` the selectivity ratio was 4. Work on `CN1CCCN(c2ccnc(CN3CCN(c4ccc(C(F)(F)F)cc4)CC3)c2)CC1` yielded a selectivity ratio of 66. `CN(C)CCN(C)c1ccnc(CN2CCN(c3ccc(Cl)cc3)CC2)c1` showed a selectivity ratio of over 52. Compound `CN1CCN(c2ccnc(CN3CCN(c4ccc(Cl)cc4)CC3)c2)CC1` has a selectivity ratio of over 34. Work on `CN(C)CCN(C)c1ccc(C(F)(F)F)c(CN2CCN(c3ccc(C(F)(F)F)cc3)CC2)c1` yielded a selectivity ratio of 5. For `NC(=O)c1ncn([C@@H]2O[C@H](CO)[C@@H](O)[C@H]2O)n1` [RIBAVIRIN], the selectivity ratio was over 59. In the case of `CN1CCCN(c2ccc(C(F)(F)F)c(CN3CCN(c4ccc(C(F)(F)F)cc4)CC3)c2)CC1`, the selectivity ratio is reported as 11.

System: Zika virus
Experiment: Antiviral activity against ZIKV infected in HUVECs assessed as reduction in NS5 protein level measured after 48 hrs by Western blot analysis
Format: functional, organism-based
Details: HUVEC, dose 0.625-5 µM
In the case of `CN(C)CCN(C)CCN(C)c1ccc(C(F)(F)F)c(CN2CCN(c3ccncc3)CC2)c1`, the Activity is reported as “Dose-Dependent Effect”. With `CN1CC2(CCN(c3ccnc(CN4CCN(c5ccc(Cl)cc5)CC4)c3)C2)C1` the Activity was “Dose-Dependent Effect”.

System: Zika virus
Experiment: Antiviral activity against ZIKV infected in HUVECs assessed as inhibition of viral replication at 10 uM pretreated with cells for 1 hr followed by viral infection for 1 hr prior to compound washout and measured after 48 hrs post infection by qRT-PCR analysis
Format: functional, organism-based
Details: HUVEC, time 2.0 hrs
In the case of `CN(C)CCN(C)CCN(C)c1ccc(C(F)(F)F)c(CN2CCN(c3ccncc3)CC2)c1`, the Activity is reported as “Active”. With `CN1CC2(CCN(c3ccnc(CN4CCN(c5ccc(Cl)cc5)CC4)c3)C2)C1` the Activity was “Active”.

System: Zika virus
Experiment: Antiviral activity against ZIKV infected in HUVECs assessed as inhibition of viral replication at 10 uM incubated for 1 hr with subsequent addition of virus followed by compound washout and measured after 48 hrs post infection by qRT-PCR analysis
Format: functional, organism-based
Details: HUVEC
For `CN(C)CCN(C)CCN(C)c1ccc(C(F)(F)F)c(CN2CCN(c3ccncc3)CC2)c1`, the Activity was “Active”. In the case of `CN1CC2(CCN(c3ccnc(CN4CCN(c5ccc(Cl)cc5)CC4)c3)C2)C1`, the Activity is reported as “Active”.

System: Zika virus
Experiment: Antiviral activity against ZIKV infected in HUVECs assessed as inhibition of viral replication at 10 uM pre-infected with virus for 1 hr prior to compound addition for 1 hr followed by compound washout and measured after 48 hrs post infection by qRT-PCR analysis
Format: functional, organism-based
Details: HUVEC
In the case of `CN(C)CCN(C)CCN(C)c1ccc(C(F)(F)F)c(CN2CCN(c3ccncc3)CC2)c1`, the Activity is reported as “inactive”. With `CN1CC2(CCN(c3ccnc(CN4CCN(c5ccc(Cl)cc5)CC4)c3)C2)C1` the Activity was “inactive”.

System: Zika virus
Experiment: Antiviral activity against ZIKV infected in HUVECs assessed as reduction in viral attachment to AXL
Format: functional, organism-based
Details: HUVEC
With `CN(C)CCN(C)CCN(C)c1ccc(C(F)(F)F)c(CN2CCN(c3ccncc3)CC2)c1` the Activity was “inactive”. In the case of `CN1CC2(CCN(c3ccnc(CN4CCN(c5ccc(Cl)cc5)CC4)c3)C2)C1`, the Activity is reported as “inactive”.

System: Human coronavirus OC43
Experiment: Antiviral activity against Human coronavirus OC43 infected in BHK-21 cells assessed as inhibition of viral replication pre-infected with virus for 24 hrs followed by compound addition and measured after 48 hrs by luciferase assay
Format: functional, organism-based
Details: Betacoronavirus 1, BHK-21
With `CN(C)CCN(C)CCN(C)c1ccc(C(F)(F)F)c(CN2CCN(c3ccncc3)CC2)c1` the EC50 was 2.28 µM. `CN1CC2(CCN(c3ccnc(CN4CCN(c5ccc(Cl)cc5)CC4)c3)C2)C1` showed an EC50 of 2.2 µM.

System: Influenza A virus
Experiment: Antiviral activity against influenza A virus infected in HEK293T cells assessed as inhibition of viral replication pre-infected with virus followed by compound addition and measured after 24 hrs by luciferase assay
Format: functional, organism-based
Details: HEK-293T
Compound `CN(C)CCN(C)CCN(C)c1ccc(C(F)(F)F)c(CN2CCN(c3ccncc3)CC2)c1` has an EC50 of 2.69 µM. `CN1CC2(CCN(c3ccnc(CN4CCN(c5ccc(Cl)cc5)CC4)c3)C2)C1` gave an EC50 of 2.6 µM.

System: HEK-293T
Experiment: Cytotoxicity against HEK293T cells assessed as reduction in cell viability at >10 uM measured after 24 hrs by CCK-8 method
Format: toxicity, cell-based
Details: human
In the case of `CN(C)CCN(C)CCN(C)c1ccc(C(F)(F)F)c(CN2CCN(c3ccncc3)CC2)c1`, the Activity is reported as “Toxic”. For `CN1CC2(CCN(c3ccnc(CN4CCN(c5ccc(Cl)cc5)CC4)c3)C2)C1`, the Activity was “Toxic”.

System: not listed separately
Experiment: Metabolic stability in mouse liver microsomes assessed as half life preincubated with NADPH for 10 mins followed by compound addition and measured upto 30 mins by LC-MS/MS analysis
Format: ADME, Microsome
Details: time < 40 min
Work on `CN(C)CCN(C)CCN(C)c1ccc(C(F)(F)F)c(CN2CCN(c3ccncc3)CC2)c1` yielded a half-life of 2.31 h. With `CN(C)CCN(C)c1ccc(C#N)c(CN2CCN(c3ccc(Cl)cc3)CC2)c1` the half-life was 0.548 h. In the case of `CN1CC2(CCN(c3ccnc(CN4CCN(c5ccc(Cl)cc5)CC4)c3)C2)C1`, the half-life is reported as 1.4 h.

System: not listed separately
Experiment: Metabolic stability in human liver microsomes assessed as half life preincubated with NADPH for 10 mins followed by compound addition and measured upto 30 mins by LC-MS/MS analysis
Format: ADME, Microsome
Details: time < 40 min
In the case of `CN(C)CCN(C)CCN(C)c1ccc(C(F)(F)F)c(CN2CCN(c3ccncc3)CC2)c1`, the half-life is reported as over 1.53 h. Work on `CN(C)CCN(C)c1ccc(C#N)c(CN2CCN(c3ccc(Cl)cc3)CC2)c1` yielded a half-life of over 1.53 h. Work on `CN1CC2(CCN(c3ccnc(CN4CCN(c5ccc(Cl)cc5)CC4)c3)C2)C1` yielded a half-life of over 1.53 h.
